Test results as given in US8598154B2 (Corcept Therapeutics, Inc., priority 2010, dated 2013).

Key:
[1] = target: T1, glucocorticoid receptors (GR) in SW1353/MMTV-5 cells (Homo sapiens, UniProt P04150); assay: GR functional assay using SW1353/MMTV-5 cells (MMTV-luciferase reporter); assay type: cell-based
T1 construct: contains endogenous glucocorticoid receptors; endogenous in cells; host or cells: SW1353/MMTV-5 (human chondrosarcoma, stably transfected with the pMAMneo-Luc reporter only)
T1 sequence (P04150 1-777): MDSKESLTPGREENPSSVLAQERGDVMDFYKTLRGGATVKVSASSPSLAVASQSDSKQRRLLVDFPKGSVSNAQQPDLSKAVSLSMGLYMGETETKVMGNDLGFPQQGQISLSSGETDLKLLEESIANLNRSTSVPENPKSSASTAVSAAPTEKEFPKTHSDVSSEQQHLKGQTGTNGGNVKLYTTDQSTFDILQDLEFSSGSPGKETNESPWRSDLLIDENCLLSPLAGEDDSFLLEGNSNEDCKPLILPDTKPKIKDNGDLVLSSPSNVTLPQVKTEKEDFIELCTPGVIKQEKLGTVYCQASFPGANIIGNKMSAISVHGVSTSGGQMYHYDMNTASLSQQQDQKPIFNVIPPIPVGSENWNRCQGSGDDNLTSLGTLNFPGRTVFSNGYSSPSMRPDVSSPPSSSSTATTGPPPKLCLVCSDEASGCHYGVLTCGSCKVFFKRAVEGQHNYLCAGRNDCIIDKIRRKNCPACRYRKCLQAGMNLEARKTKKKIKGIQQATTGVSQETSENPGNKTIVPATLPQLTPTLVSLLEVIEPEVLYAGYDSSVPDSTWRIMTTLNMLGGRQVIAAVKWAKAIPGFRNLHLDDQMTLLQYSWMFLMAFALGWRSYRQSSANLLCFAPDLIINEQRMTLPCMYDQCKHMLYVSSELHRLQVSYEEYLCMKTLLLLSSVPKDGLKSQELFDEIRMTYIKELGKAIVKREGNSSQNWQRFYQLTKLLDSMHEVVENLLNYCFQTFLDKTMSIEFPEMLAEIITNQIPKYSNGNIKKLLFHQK
Procedure, shortened: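 Human chondrosarcoma line stably carrying firefly luciferase under an MMTV LTR glucocorticoid-responsive element, with endogenous GR. Cells were plated in 96-well plates and held 24 hrs in geneticin-free medium without CO2.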

[2] = target: T2, Human Recombinant Glucocorticoid Receptor (Homo sapiens, UniProt P04150); assay: Glucocorticoid receptor binding displacement assay with 3H-dexamethasone; details: displacement of 2.5 nM 3H-dexamethasone; Ki from IC50 by Cheng-Prusoff; read-out: GR Binding Ki
T2 construct: This GR was a full-length steroid hormone receptor likely to be associated with heat-shock and other endogenous proteins; host or cells: baculovirus-infected insect cells
T2 sequence (P04150 1-777): T1 sequence (P04150 1-777)

Cc1cc(COC(=O)[C@]23Cc4cnn(-c5ccc(F)cc5)c4C=C2CCN(S(=O)(=O)c2ccc(N4CCOCC4)nc2)C3)no1 [Example 57, (R)-1-(4-Fluorophenyl)-6-(6-morpholin-4-yl-pyridine-3-sulfonyl]-1,4,5,6,7,8-hexahydro-1,2,6-triaza-cyclopenta[b]naphthalene-4a-carboxylic acid 5-methylisoxazol-3-ylmethyl ester] was tested, and the Ki [1] was 10 to 50 nM and the Ki [2] was 0.5 to 1 nM.
With O=C(OCC1CC1)[C@]12Cc3cnn(-c4ccc(F)cc4)c3C=C1CCN(S(=O)(=O)c1ccc(C(F)(F)F)nc1)C2 [Example 58] the Ki [1] was less than 10 nM and the Ki [2] was 0.5 to 1 nM.
COc1ccc(S(=O)(=O)N2CCC3=Cc4c(cnn4-c4ccc(F)cc4)C[C@]3(C(=O)OCC3CCC3)C2)cn1 [Example 59, (R)-1-(4-Fluorophenyl)-6-(6-methoxypyridine-3-sulfonyl)-1,4,5,6,7,8-hexahydro-1,2,6-triaza-cyclopenta[b]naphthalene-4a-carboxylic acid cyclobutylmethyl ester] was tested, and the Ki [1] was less than 10 nM and the Ki [2] was 0.5 to 1 nM.
In the case of Cc1cc(COC(=O)[C@]23Cc4cnn(-c5ccc(F)cc5)c4C=C2CCN(S(=O)(=O)c2ccc(N4CC[C@@H](F)C4)nc2)C3)no1 [Example 60, (R)-1-(4-Fluorophenyl)-6-[6-((R)-3-fluoropyrrolidin-1-yl)-pyridine-3-sulfonyl]-1,4,5,6,7,8-hexahydro-1,2,6-triaza-cyclopenta[b]naphthalene-4a-carboxylic acid 5-methylisoxazol-3-ylmethyl ester], the Ki [1] is reported as 10 to 50 nM and the Ki [2] is reported as 0.5 to 1 nM.
Compound O=C(OCC1CC(O)C1)[C@]12Cc3cnn(-c4ccc(F)cc4)c3C=C1CCN(S(=O)(=O)c1ccc(N3CC[C@@H](F)C3)nc1)C2 (stereo partly drawn) [Example 61, (R)-1-(4-Fluorophenyl)-6-[6-((R)-3-fluoropyrrolidin-1-yl)-pyridine-3-sulfonyl]-1,4,5,6,7,8-hexahydro-1,2,6-triaza-cyclopenta[b]naphthalene-4a-carboxylic acid 3-hydroxy cyclobutylmethyl ester] has a Ki [1] of 10 to 50 nM and a Ki [2] greater than 1 nM.
Work on O=S(=O)(c1ccc(N2CCOCC2)nc1)N1CCC2=Cc3c(cnn3-c3ccc(F)cc3)C[C@]2(CN2CC[C@H](O)C2)C1 [Example 62, (S)-1-[(S)-1-(4-Fluorophenyl)-6-[6-morpholin-4-yl-pyridine-3-sulfonyl)-1,4,5,6,7,8-hexahydro-1,2,6-triaza-cyclopenta[b]naphthalene-4a-ylmethyl]-pyrrolidin-3-ol] yielded a Ki [1] greater than 50 nM and a Ki [2] greater than 1 nM.
Work on O=S(=O)(c1ccc(N2CCOCC2)nc1)N1CCC2=Cc3c(cnn3-c3ccc(F)cc3)C[C@]2(CN2CC[C@@H](O)C2)C1 [Example 63, (R)-1-[(S)-1-(4-Fluorophenyl)-6-[6-morpholin-4-yl-pyridine-3-sulfonyl)-1,4,5,6,7,8-hexahydro-1,2,6-triaza-cyclopenta[b]naphthalene-4a-ylmethyl]-pyrrolidin-3-ol] yielded a Ki [1] of 10 to 50 nM and a Ki [2] greater than 1 nM.
Compound COCCOC[C@]12Cc3cnn(-c4ccc(F)cc4)c3C=C1CCN(S(=O)(=O)c1ccc(N3CCOCC3)nc1)C2 [Example 64, (R)-1-(4-Fluoro-phenyl)-4a-(2-methoxy-ethoxymethyl)-6-(6-morpholin-4-yl-pyridine-3-sulfonyl)-4,4a,5,6,7,8-hexahydro-1H-1,2,6-traza-cyclopenta[b]naphthalene] has a Ki [1] of less than 10 nM and a Ki [2] of 0.5 to 1 nM.
